The results in this text go back to patent US20220256847A1, “CELL DEATH INHIBITOR AND CELL DEATH INHIBITION METHOD” (UNIVERSITY OF TSUKUBA, priority 2019, published 2022).

Holding throughout (type): in vivo
Series [1] has as its system GFP protein expressed in the leaves of Nicotiana benthamiana. The series can be described thus: GFP protein expression level, SDS-PAGE and CBB staining of soluble leaf protein.
Series [2] has as its system hFbxw7 protein expressed in the leaves of Nicotiana benthamiana. In words: hFbxw7 protein expression, Western blotting with anti-FLAG antibody. As to conditions: Example 2: 200 mM spray; 25° C.; three days after agroinfiltration. From the text: The soluble protein was extracted from the region where the hFbxw7 protein was expressed in the leaves of each plant three days after agroinfiltration. The prepared soluble protein was then subjected to SDS-PAGE and transferred to a PVDF membrane. As described above, a FLAG tag was attached to the N-terminus of the hFbxw7 protein. Here, the hFbxw7 protein was detected by Western blotting with an anti-FLAG antibody. FIG. 9 is a photograph showing the results of Western blotting. FIG. 9 also illustrates the results of CBB staining. In FIG. 9, “NT” indicates the results of the leaves of Nicotiana benthamiana without gene introduction, and “FW” indicates fresh weight. In addition, “Mock” indicates the result of not spraying an aqueous solution of sodium ascorbate, and “AsA” indicates the result of spraying a 200 mM aqueous solution of sodium ascorbate. In addition, the band indicated by the arrowhead indicates the band of the hFbxw7 protein. In addition, “RbcL” indicates the Rubisco large subunit.
In general terms: In western blotting, separated proteins are transferred to a membrane and probed.

The subject of a further series is Nicotiana benthamiana. The series can be described thus: Observation of gangrene after adding the substance to the agroinfiltration liquid (vacuum infiltration). As to conditions: hCu1, 25° C., seven days. The method, then:
Sodium ascorbate was added to the agroinfiltration liquid to examine whether gangrene can be inhibited. Specifically, Nicotiana benthamiana was immersed in the agroinfiltration liquid, and vacuum infiltrated by leaving it under a pressure of 736 mmHg for 5 minutes, and then bringing the pressure back to atmospheric pressure, and thus the hCu1 protein was expressed. Here, sodium ascorbate having a final concentration of 80 mM, 100 mM, or 200 mM was added to the agroinfiltration liquid. Each plant was cultured at 25° C. for seven days after agroinfiltration.
In (a) to (c), “vacuum” indicates the results of vacuum infiltration.
Sodium ascorbate was added to the agroinfiltration liquid to examine whether gangrene can be inhibited. Specifically, Nicotiana benthamiana was immersed in the agroinfiltration liquid, and vacuum infiltrated by leaving it under a pressure of 736 mmHg for 5 minutes, and then bringing the pressure back to atmospheric pressure, and thus the hCu1 protein was expressed. Here, sodium ascorbate having a final concentration of 0, 10, 20, 30, or 40 mM was added to the agroinfiltration liquid.
Sodium ascorbate was administered only once at the time of agroinfiltration. […]

For series [3], the system named is hCu1 protein expressed in the leaves of Nicotiana benthamiana. The series can be described thus: hCu1 protein expression level, Western blotting with anti-FLAG antibody. From the text:
The soluble protein was then extracted from the region where the hCu1 protein was expressed in the leaves of each plant. The prepared soluble protein was then subjected to SDS-PAGE and transferred to a PVDF membrane. As described above, a FLAG tag was attached to the N-terminus of the hCu1 protein. Here, the hCu1 protein was detected by Western blotting with an anti-FLAG antibody.
FIG. 4A is a photograph showing the results of Western blotting. In FIG. 4A, “NT” indicates the results of the leaves of Nicotiana benthamiana without gene introduction, and “FW” indicates fresh weight. In FIG. 4A, the band indicated by the arrowhead indicates the band of the hCu1 protein. FIG. 4B is a graph showing the results of quantifying the expression level of the hCu1 protein based on FIG. 4A. […]
The soluble protein was then extracted from the leaves of each plant seven days after agroinfiltration. The prepared soluble protein was then subjected to SDS-PAGE and transferred to a PVDF membrane. As described above, a FLAG tag was attached to the N-terminus of the hCu1 protein. Here, the hCu1 protein was detected by Western blotting with an anti-FLAG antibody.
FIG. 13A is a photograph showing the results of Western blotting, and also illustrates the results of CBB staining. In FIG. 13A, “NT” indicates the results of the leaves of Nicotiana benthamiana without gene introduction, and “FW” indicates fresh weight. In addition, “vacuum” indicates the result of performing the vacuum infiltration, and “spray” indicates the result of spraying an aqueous solution of sodium ascorbate without adding sodium ascorbate to the agroinfiltration liquid. In addition, the band indicated by the arrowhead indicates the band of the hCu1 protein. In addition, “RbcL” indicates the Rubisco large subunit.
FIG. 13B is a graph showing the results of quantifying the expression level of the hCu1 protein based on FIG. 13A. In FIG. 13B, “vacuum” and “spray” indicate the same meaning as those in FIG. 13A.

Series [4] has as its system Cryj1 protein expressed in the leaves of Nicotiana benthamiana. In words: Cryj1 protein expression, Western blotting with anti-Cryj1 antibody. As to conditions: Example 8: 200 mM spray once every two days; vacuum infiltration; 24° C. or 20° C., seven days. The procedure:
Nicotiana benthamiana was immersed in the agroinfiltration liquid, and vacuum infiltrated by leaving it under a pressure of 736 mmHg for 5 minutes, and then by bringing the pressure back to atmospheric pressure, and thus the Cryj1 protein was expressed. Each plant was cultured at 24° C. or 20° C. for seven days after agroinfiltration. In addition, a 0 mM or 200 mM aqueous solution of sodium ascorbate was sprayed once every two days.
The soluble protein was then extracted from the leaves of each plant seven days after agroinfiltration. The prepared soluble protein was then subjected to SDS-PAGE and transferred to a PVDF membrane. Then, the Cryj1 protein was detected by Western blotting with an anti-Cryj1 antibody.
FIG. 18A is a photograph showing the results of Western blotting. In FIG. 18B, “P” indicates the result of SDS-PAGE and Western blotting of the Cryj1 protein derived from a natural product as a positive control, “M” indicates a molecular weight marker, “WT” indicates the result of the leaves of Nicotiana benthamiana without gene introduction, “24° C.” indicates the result of culturing at 24° C., “20° C.” indicates the result of culturing at 20° C., and “+AsA” indicates the result of spraying a 200 mM aqueous solution of sodium ascorbate once every two days.

The test system of series [5] is PLP-GFP protein expressed in the leaves of Nicotiana benthamiana. The series can be described thus: PLP-GFP protein expression level, Western blotting with anti-GFP antibody. As to conditions: Example 1: spray, concentration of 100 mM or higher, once every two days; 18° C., seven days. The method, then:
The soluble protein was then extracted from the region where the PLP-GFP protein was expressed in the leaves of each plant. The prepared soluble protein was then subjected to SDS-PAGE and transferred to a PVDF membrane. For comparison, 100 ng, 200 ng, and 300 ng of purified GFP proteins were also subjected to SDS-PAGE and transferred to a PVDF membrane. Then, the PLP-GFP protein was detected by Western blotting with an anti-GFP antibody. FIG. 5A is a photograph showing the results of Western blotting. In FIG. 5A, “NT” indicates the results of the leaves of Nicotiana benthamiana without gene introduction, and “FW” indicates fresh weight. In FIG. 5A, the band indicated by the arrowhead indicates the band of the PLP-GFP protein. In addition, the band near 30 kDa is the band of the GFP protein. FIG. 5B is a graph showing the results of quantifying an expression level of the PLP-GFP protein based on FIG. 5A.

Series [6] has as its system leaves of Nicotiana benthamiana. The series can be described thus: Observation of gangrene (cell death induced by transient protein expression) in leaves after agroinfiltration and spraying of the substance. The procedure: Nicotiana benthamiana was grown for 5 to 6 weeks under conditions of 25° C. and 16 hours in light and 8 hours in the dark. Each of the above-described vectors was introduced into an Agrobacterium tumefaciens GV3101 strain having a binary vector, and it was cultured at 28° C. until the stationary phase in L broth medium supplemented with 20 μM acetosyringone, 50 mg/L kanamycin, 30 mg/L gentamicin, and 30 mg/L rifampicin at 10 mM MES (pH 5.6).
Then, the culture solution was centrifuged to recover the Agrobacterium tumefaciens, and then suspended such that OD600 was approximately 1 by using an infiltration buffer (10 mM magnesium chloride, 10 mM MES, (pH 5.6), and 100 μM acetosyringone). The Agrobacterium tumefaciens was then left in this liquid for 2 to 3 hours.
After this, the suspension of Agrobacterium tumefaciens was infiltrated on the underside of the leaves of Nicotiana benthamiana by using a 1 mL syringe without a needle. Alternatively, in some cases, Nicotiana benthamiana was immersed in the Agrobacterium suspension (agroinfiltration liquid), and vacuum infiltrated by leaving it under a pressure of 736 mmHg for 5 minutes, and then bringing the pressure back to atmospheric pressure.
In addition, in some experiments, sodium ascorbate was added to the infiltration buffer. Expression induction of heat shock protein was performed by incubating the plant for 1 hour at 37° C. one day and three days after the infiltration. In the following Example, sodium L-ascorbate was used as sodium ascorbate.
Agroinfiltration using a syringe was performed to express GFP, hCu1, hFbxw7, PLP-GFP, and Cryj1 in the leaves of Nicotiana benthamiana. In the expression of PLP-GFP, a 1/100 amount of pBYR2HS-EGFP was simultaneously agroinfitrated. Each plant was cultured at 18° C. for seven days after agroinfiltration. In addition, 0, 30, 50, 100, 200, and 300 mM aqueous solutions of sodium ascorbate were sprayed once every two days.
The scale bar indicates 1 cm. […] In (a) to (f), the region surrounded by the dotted circle is a region expressing GFP, hCu1, hFbxw7, PLP-GFP, and Cryj1, respectively.
Agroinfiltration using a syringe was performed to express each of GFP, hCu1, and hFbxw7 in the leaves of Nicotiana benthamiana. Each plant was cultured at 25° C. for seven days after agroinfiltration. In addition, a 0 or 200 mM aqueous solution of sodium ascorbate was sprayed once every two days. The present Example was mainly different from Example 1 in the growth temperatures of the plant.
The scale bar indicates 1 cm.
Each plant was cultured at 18° C. for seven days after agroinfiltration.
Specifically, Nicotiana benthamiana was immersed in the agroinfiltration liquid, and vacuum infiltrated by leaving it under a pressure of 736 mmHg for 5 minutes, and then bringing the pressure back to atmospheric pressure, and thus the hFbxw7 protein was expressed. Each plant was cultured at 20° C. for seven days after agroinfiltration. In addition, 1 mM of each endoplasmic reticulum stress inhibitor was sprayed one day and three days after agroinfiltration.

[7] abbreviates: Example 1: spray, concentration of 100 mM or higher, once every two days, 18° C., seven days.

Molecules are shown by their SMILES.

Regarding `O=C1O[C@H]([C@@H](O)CO)C([O-])=C1O.[Na+]` [sodium ascorbate, sodium L-ascorbate], in series [1] (setting [7]), the “expression level of the GFP protein” value is “increase in expression level of the GFP protein” and the “expression level of the Rubisco large subunit” value is reported as “increase in expression level of the Rubisco large subunit”. For the same compound, the “GFP protein expression level” value in series [1] (Example 2: 200 mM spray, 25° C., three, five and seven days after agroinfiltration) is given as “GFP protein expression level sustenance”. Further, in series [2], the “expression of the hFbxw7 protein” value is on record as “expression of the hFbxw7 protein was observed”. The “gangrene induced by the substance” value with Nicotiana benthamiana (Example 3: concentration of 80 mM or higher (80, 100, 200 mM) added to the agroinfiltration liquid) is “gangrene possibly caused by osmotic stress was induced”. Besides, the “gangrene of the plant” value in the series on Nicotiana benthamiana (Example 4: added to the agroinfiltration liquid (0-40 mM), once) was “reduce gangrene of the plant”. The “expression level of the hCu1 protein” value in series [3] (setting [7]) was “increase in expression level of the hCu1 protein”. For the same compound, the “peak in the expression level of the hCu1 protein” value in series [3] (Example 1: spray, concentration of 200 mM or higher, 18° C., seven days) is “peak in the expression level of the hCu1 protein was observed”. In series [3] (Example 2: 200 mM spray, 25° C., seven days after agroinfiltration), the “expression of the hCu1 protein” value is on record as “expression of the hCu1 protein was maintained even seven days after agroinfiltration”. The “expression level of the hCu1 protein, time of peak” value in series [3] (Example 2: 200 mM spray, 25° C., three days after agroinfiltration) is given as “peak in the expression level of the hCu1 protein was observed three days after agroinfiltration”. Moreover, the “expression of the hCu1 protein” value in series [3] (Example 4: final concentration of 40 mM added to the agroinfiltration liquid, once, vacuum infiltration, 25° C., seven days) is reported as “expression of the hCu1 protein similar to a case where a 200 mM aqueous solution of sodium ascorbate was sprayed”. Further, the “expression of Cryj1 protein” value in series [4] is “expression of Cryj1 protein was observed”. The “expression level of the PLP-GFP protein” value in series [5] is given as “increase in expression level of the PLP-GFP protein”. Moreover, in series [6] (Example 1: sprayed with 100, 200 and 300 mM aqueous solutions once every two days, 18° C., seven days after agroinfiltration, hCu1, hFbxw7, PLP-GFP, Cryj1 regions), the “gangrene (cell death induced by transient protein expression)” value was “gangrene was inhibited”. Further, the gangrene entry in series [6] (Example 2: 200 mM spray once every two days, 25° C., seven days after agroinfiltration, GFP, hCu1, hFbxw7) is listed as “tendency of gangrene suppression”. The “gangrene in GFP-expressing leaves” value in series [6] (Example 2: 200 mM spray, 25° C., culturing continued for seven days after agroinfiltration) was “tendency of gangrene reduction”.
For `O=C([O-])CC(O)(CC(=O)[O-])C(=O)[O-].[Na+].[Na+].[Na+]` [sodium citrate, reference compound], in series [6] (Example 5: spray 30-300 mM once every two days, 18° C., seven days), the “cell death induced by transient protein expression” value is “cannot inhibit cell death induced by transient protein expression”. For the same compound, the “state of the leaves” value in series [6] (Example 5: spray, concentration of 100 mM or higher, once every two days, 18° C., seven days) was “leaves were in a wilted state”.
